Laboratory results: patent US20210246122A1, “Triazine Compounds and Uses Thereof” (Aduro Biotech, Inc., priority 2018, published 2021)

Target: T1, Human cGAS amino acids 155-522 (Homo sapiens, UniProt Q8N884)
T1 construct: hexahistidine tag (N, cleaved yes); made in house; host or cells: E. coli BL21 DE3 Rosetta 2
Test: cGAS activity assay (DNA-activated cGAS, remaining ATP measured by Kinase-Glo Max luciferase assay)
Assay type: biochemical
Details: 300 nM purified cGAS, 1 μM dsDNA, 250 μM ATP, 100 μM GTP, 37° C. for 1.25 hours
Method: IC50 values were determined as follows:
Human cGAS sequence encoding amino acids 155-522 was cloned into a pET (EMD Millipore) based expression plasmid. The resulting construct contained a tandem N-terminal hexahistidine tag, maltose binding protein fusion followed by a tobacco etch virus protease cleavable linker preceding cGAS amino acids 155-522.
Construct sequence: Amino acids 155-522, Human cGAS
Protein was expressed and purified from E. coli BL21 DE3 Rosetta 2 (EMD Millipore) cells using standard techniques. Cells were grown in 2× yeast extract tryptone medium and expression was initiated via the addition of isopropyl β-D-1-thiogalactopyranoside. Expression proceeded overnight at 18° C. Cells were harvested by centrifugation and subsequently lysed via sonication. Insoluble fraction was removed by centrifugation. Maltose binding protein (MBP) fusion proteins were purified on a dextrin sepharose column (GE Healthcare) and the MBP tag was removed using tobacco etch virus protease overnight during dialysis. Protein was further purified on a heparin column (GE Healthcare) and eluted using a NaCl gradient. Column fraction were pooled and further purified on a Superdex 75 gel filtration column (GE Healthcare). Protein was quantified using 280 nm absorbance. Protein was then flash frozen in liquid nitrogen and stored at −80° C. until use.
Potential antagonists were diluted in 100% dimethyl sulfoxide and added to the reaction. Final dimethyl sulfoxide concentration was 5%. The compounds were tested from 1 μM with either 3- or 4-fold serial dilutions down to 0.000051 or 0.000004 μM respectively.
Two complementary DNA oligos (IDT DNA) were annealed by slow cooling from 95° C. The resulting double stranded DNA was used to activate cGAS.
Reactions were performed at 37° C. for 1.25 hours. Reaction buffer: 20 mM Tris HCl pH 9, 100 mM NaCl, 5 mM MgCl2, 0.1 mg/ml bovine gamma globulin, 250 μM adenosine triphosphate, 100 μM guanosine triphosphate, 0.5 mM Tris(2-carboxyethyl)phosphine hydrochloride, 1 μM double stranded DNA and 300 nM purified cGAS protein.
Reactions were stopped and ATP levels in the reaction were measured using a luciferase based assay. Promega Kinase-Glo Max Assay. Luminescence was measured on a plate reader (Molecular Devices). Values were normalized to control wells lacking compound.

T1 sequence (Q8N884 157-522): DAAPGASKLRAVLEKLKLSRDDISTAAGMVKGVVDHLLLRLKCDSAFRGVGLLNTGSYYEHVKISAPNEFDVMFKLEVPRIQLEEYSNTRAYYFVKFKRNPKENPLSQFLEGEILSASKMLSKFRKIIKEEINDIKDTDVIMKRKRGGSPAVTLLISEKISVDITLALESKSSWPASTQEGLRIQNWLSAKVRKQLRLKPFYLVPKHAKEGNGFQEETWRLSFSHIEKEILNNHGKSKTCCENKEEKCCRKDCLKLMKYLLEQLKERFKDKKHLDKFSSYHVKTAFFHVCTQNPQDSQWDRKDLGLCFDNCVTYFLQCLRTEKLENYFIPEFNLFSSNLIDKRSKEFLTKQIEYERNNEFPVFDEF

IC50 [µM]	SMILES
> 250	COCCNC(=O)[C@H](Cc1ccc(C#N)cc1)Nc1nc(NCc2nc3cc(F)ccc3[nH]2)nc(Nc2cccc(CN3CCNCC3)c2)n1 [TA1017, (S)-3-(4-cyanophenyl)-2-((4-(((5-fluoro-1H-benzo[d]imidazol-2-yl)methyl)amino)-6-((3-(piperazin-1-ylmethyl)phenyl)amino)-1,3,5-triazin-2-yl)amino)-N-(2-methoxyethyl)propanamide]
> 250	COC(=O)[C@@H](Cc1ccc(C#N)cc1)Nc1nc(NCc2nc3cc(F)ccc3[nH]2)nc(Nc2cccc(CN3CCNCC3)c2)n1 [TA1019, methyl (R)-3-(4-cyanophenyl)-2-((4-(((5-fluoro-1H-benzo[d]imidazol-2-yl)methyl)amino)-6-((3-(piperazin-1-ylmethyl)phenyl)amino)-1,3,5-triazin-2-yl)amino)propanoate]
> 250	CNC(=O)[C@H](Cc1ccc(C#N)cc1)Nc1nc(NCc2nc3cc(F)ccc3[nH]2)nc(Nc2cccc(CN3CCNCC3)c2)n1 [TA1022, (S)-3-(4-cyanophenyl)-2-((4-(((5-fluoro-1H-benzo[d]imidazol-2-yl)methyl)amino)-6-((3-(piperazin-1-ylmethyl)phenyl)amino)-1,3,5-triazin-2-yl)amino)-N-methylpropanamide]
> 250	COCCOCCNC(=O)[C@H](Cc1ccc(C#N)cc1)Nc1nc(NCc2nc3cc(F)ccc3[nH]2)nc(Nc2cccc(CN3CCNCC3)c2)n1 [TA1023, (S)-3-(4-cyanophenyl)-2-((4-(((5-fluoro-1H-benzo[d]imidazol-2-yl)methyl)amino)-6-((3-(piperazin-1-ylmethyl)phenyl)amino)-1,3,5-triazin-2-yl)amino)-N-(2-(2-methoxyethoxy)ethyl)propanamide]
> 250	COC(=O)[C@H](Cc1ccc(C#N)cc1)Nc1ncnc(Nc2cccc(CN3CCN(C(=O)c4nccnc4O)CC3)c2)n1 [TA1026, methyl (S)-3-(4-cyanophenyl)-2-((4-((3-((4-(3-hydroxypyrazine-2-carbonyl)piperazin-1-yl)methyl)phenyl)amino)-1,3,5-triazin-2-yl)amino)propanoate]
> 250	COC(=O)[C@H](Cc1ccc(C#N)cc1)Nc1nc(Nc2cccc(CN3CCNCC3)c2)nc(OC)n1 [TA1028, methyl (S)-3-(4-cyanophenyl)-2-((4-methoxy-6-((3-(piperazin-1-ylmethyl)phenyl)amino)-1,3,5-triazin-2-yl)amino)propanoate]
> 250	COCCOCCNC(=O)[C@H](Cc1ccc(C#N)cc1)Nc1nc(NCc2nc3cc(F)ccc3[nH]2)nc(Nc2cccc(CN3CCN(C(=O)c4nccnc4OC)CC3)c2)n1 [TA1029, (S)-3-(4-cyanophenyl)-2-((4-(((5-fluoro-1H-benzo[d]imidazol-2-yl)methyl)amino)-6-((3-((4-(3-methoxypyrazine-2-carbonyl)piperazin-1-yl)methyl)phenyl)amino)-1,3,5-triazin-2-yl)amino)-N-(2-(2-methoxyethoxy)ethyl)propanamide]
> 250	CNC(=O)[C@H](Cc1ccc(C#N)cc1)Nc1nc(NCc2nc3cc(F)ccc3[nH]2)nc(Nc2cccc(CN3CCN(C=O)CC3)c2)n1 [TA1030, (S)-3-(4-cyanophenyl)-2-((4-(((5-fluoro-1H-benzo[d]imidazol-2-yl)methyl)amino)-6-((3-((4-formylpiperazin-1-yl)methyl)phenyl)amino)-1,3,5-triazin-2-yl)amino)-N-methylpropanamide]
> 250	COCCNc1nc(Nc2cccc(CN3CCNCC3)c2)nc(N[C@@H](Cc2ccc(C#N)cc2)C(=O)OC)n1 [TA1031, methyl (S)-3-(4-cyanophenyl)-2-((4-((2-methoxyethyl)amino)-6-((3-(piperazin-1-ylmethyl)phenyl)amino)-1,3,5-triazin-2-yl)amino)propanoate]
> 250	COC(=O)[C@H](Cc1ccc(C#N)cc1)Nc1nc(NCc2nccn2C)nc(Nc2cccc(CN3CCNCC3)c2)n1 [TA1032, methyl (S)-3-(4-cyanophenyl)-2-((4-(((1-methyl-1H-imidazol-2-yl)methyl)amino)-6-((3-(piperazin-1-ylmethyl)phenyl)amino)-1,3,5-triazin-2-yl)amino)propanoate]
> 250	COCCNc1nc(Nc2cccc(CN3CCN(C(=O)c4nccnc4O)CC3)c2)nc(N[C@@H](Cc2ccc(C#N)cc2)C(=O)OC)n1 [TA1033, methyl (S)-3-(4-cyanophenyl)-2-((4-((3-((4-(3-hydroxypyrazine-2-carbonyl)piperazin-1-yl)methyl)phenyl)amino)-6-((2-methoxyethyl)amino)-1,3,5-triazin-2-yl)amino)propanoate]
> 250	COC(=O)[C@H](Cc1ccc(C#N)cc1)Nc1nc(NCc2nccn2C)nc(Nc2cccc(CN3CCN(C(=O)c4nccnc4O)CC3)c2)n1 [TA1034, methyl (S)-3-(4-cyanophenyl)-2-((4-((3-((4-(3-hydroxypyrazine-2-carbonyl)piperazin-1-yl)methyl)phenyl)amino)-6-(((1-methyl-1H-imidazol-2-yl)methyl)amino)-1,3,5-triazin-2-yl)amino)propanoate]
> 250	CNc1nc(Nc2cccc(CN3CCN(C(=O)c4nccnc4O)CC3)c2)nc(N[C@@H](Cc2ccc(C#N)cc2)C(=O)OC)n1 [TA1035, methyl (S)-3-(4-cyanophenyl)-2-((4-((3-((4-(3-hydroxypyrazine-2-carbonyl)piperazin-1-yl)methyl)phenyl)amino)-6-(methylamino)-1,3,5-triazin-2-yl)amino)propanoate]
> 250	CN(C)C(=O)[C@H](Cc1ccc(C#N)cc1)Nc1nc(NCc2nc3cc(F)ccc3[nH]2)nc(Nc2cccc(CN3CCN(C(=O)OC(C)(C)C)CC3)c2)n1 [TA1036, tert-butyl (S)-4-(3-((4-((3-(4-cyanophenyl)-1-(dimethylamino)-1-oxopropan-2-yl)amino)-6-(((5-fluoro-1H-benzo[d]imidazol-2-yl)methyl)amino)-1,3,5-triazin-2-yl)amino)benzyl)piperazine-1-carboxylate]
> 250	COC(=O)[C@H](Cc1ccc(C#N)cc1)Nc1nc(NCc2ccccc2)nc(Nc2cccc(CN3CCNCC3)c2)n1 [TA1049, methyl (S)-2-((4-(benzylamino)-6-((3-(piperazin-1-ylmethyl)phenyl)amino)-1,3,5-triazin-2-yl)amino)-3-(4-cyanophenyl)propanoate]
20 to 250	COC(=O)[C@H](Cc1ccc(C#N)cc1)Nc1nc(NCc2ccccc2)nc(Nc2cccc(CN3CCN(C(=O)c4nccnc4O)CC3)c2)n1 [TA1050, methyl (S)-2-((4-(benzylamino)-6-((3-((4-(3-hydroxypyrazine-2-carbonyl)piperazin-1-yl)methyl)phenyl)amino)-1,3,5-triazin-2-yl)amino)-3-(4-cyanophenyl)propanoate]
20 to 250	COC(=O)[C@H](Cc1ccc(C#N)cc1)Nc1nc(Nc2cccc(CN3CCNCC3)c2)nc(N(C)CCc2nc3ccc(OC)cc3[nH]2)n1 [TA1052, methyl (S)-3-(4-cyanophenyl)-2-((4-((2-(6-methoxy-1H-benzo[d]imidazol-2-yl)ethyl)(methyl)amino)-6-((3-(piperazin-d-ylmethyl)phenyl)amino)-1,3,5-triazin-2-yl)amino)propanoate]
> 250	COC(=O)[C@H](Cc1ccc(C#N)cc1)Nc1nc(Nc2cccc(CN3CCN(C(=O)c4cnccn4)CC3)c2)nc(N(C)CCc2nc3ccc(OC)cc3[nH]2)n1 [TA1054, methyl (S)-3-(4-cyanophenyl)-2-((4-((2-(6-methoxy-1H-benzo[d]imidazol-2-yl)ethyl)(methyl)amino)-6-((3-((4-(pyrazine-2-carbonyl)piperazin-1-yl)methyl)phenyl)amino)-1,3,5-triazin-2-yl)amino)propanoate]
> 250	COC(=O)[C@H](Cc1ccc(C#N)cc1)Nc1nc(Nc2cccc(CN3CCN(C(=O)c4csnn4)CC3)c2)nc(N(C)CCc2nc3ccc(OC)cc3[nH]2)n1 [TA1055, methyl (S)-2-((4-((3-((4-(1,2,3-thiadiazole-4-carbonyl)piperazin-1-yl)methyl)phenyl)amino)-6-((2-(6-methoxy-1H-benzo[d]imidazol-2-yl)ethyl)(methyl)amino)-1,3,5-triazin-2-yl)amino)-3-(4-cyanophenyl)propanoate]
> 250	COC(=O)[C@H](Cc1ccc(C#N)cc1)Nc1nc(Nc2cccc(CN3CCN(C(=O)[C@@H]4CCCO4)CC3)c2)nc(N(C)CCc2nc3ccc(OC)cc3[nH]2)n1 [TA1056, methyl (S)-3-(4-cyanophenyl)-2-((4-((2-(6-methoxy-1H-benzo[d]imidazol-2-yl)ethyl)(methyl)amino)-6-((3-((4-((S)-tetrahydrofuran-2-carbonyl)piperazin-1-yl)methyl)phenyl)amino)-1,3,5-triazin-2-yl)amino)propanoate]
